# Results as given in PubChem BioAssay (NCI).
#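 The concentration for 50% growth inhibition is given as GI50. TGI: total growth inhibition.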
# How the values were obtained:
# Assay in all cases: inhibition of tumour cell growth, NCI panel, 384-well format
# K-562 leukemia = tested on: K-562 leukemia
# MDA-MB-435 melanoma = tested on: MDA-MB-435 melanoma
# MALME-3M melanoma = tested on: MALME-3M melanoma
# UO-31 renal = tested on: UO-31 renal
# SK-MEL-2 melanoma = tested on: SK-MEL-2 melanoma
# NCI-H322M lung = tested on: NCI-H322M lung
# 786-0 renal = tested on: 786-0 renal
# SW-620 colon = tested on: SW-620 colon
# T-47D breast = tested on: T-47D breast
# HS 578T breast = tested on: HS 578T breast
# EKVX NSCLC = tested on: EKVX NSCLC
# HT29 colon = tested on: HT29 colon
# SNB-75 CNS = tested on: SNB-75 CNS
smiles,measurement,setting,value
Nc1nc(OCc2cc(Br)cs2)c2[nH]cnc2n1,GI50,K-562 leukemia,27.8 µM
same,TGI,K-562 leukemia,> 100 µM
same,GI50,MDA-MB-435 melanoma,43.1 µM
same,TGI,MDA-MB-435 melanoma,> 100 µM
same,GI50,MALME-3M melanoma,55.1 µM
same,TGI,MALME-3M melanoma,> 100 µM
same,GI50,UO-31 renal,4.73 µM
same,TGI,UO-31 renal,> 100 µM
same,GI50,SK-MEL-2 melanoma,35.5 µM
same,TGI,SK-MEL-2 melanoma,73.6 µM
same,GI50,NCI-H322M lung,30.7 µM
same,TGI,NCI-H322M lung,80.3 µM
same,GI50,786-0 renal,27.3 µM
same,TGI,786-0 renal,> 100 µM
same,GI50,SW-620 colon,67.4 µM
same,TGI,SW-620 colon,> 100 µM
same,GI50,T-47D breast,23.4 µM
same,TGI,T-47D breast,63.5 µM
same,GI50,HS 578T breast,22.8 µM
same,TGI,HS 578T breast,61.9 µM
same,GI50,EKVX NSCLC,39.9 µM
same,TGI,EKVX NSCLC,> 100 µM
same,GI50,HT29 colon,46 µM
same,TGI,HT29 colon,> 100 µM
same,GI50,SNB-75 CNS,29.7 µM
same,TGI,SNB-75 CNS,85.4 µM
